Results from patent US7901893B2, “NPC1L1 (NPC3) and methods of identifying ligands thereof” (Merck Sharp & Dohme Corp., priority 2004, dated 2011).
pKi: −log10 of the molar value.

Legend:
[1] = target: T1, rat brush border membrane vesicles (Rattus norvegicus, UniProt Q6T3U3); assay: Binding assay with rat brush border membrane vesicles
T1 construct: from tissue; host or cells: rat (male Sprague-Dawley) small-intestinal mucosa, brush border membrane vesicles
Description: Glass fiber filters (GF/C) were obtained from Whatman.
Rate constants for binding and dissociation.
(§1) Analog structures are defined in Table 12.

[2] = target: T2, rhesus brush border membrane vesicles (Macaca mulatta, UniProt A0MJA5); assay: Binding assay with rhesus brush border membrane vesicles
T2 sequence (A0MJA5 1-1332): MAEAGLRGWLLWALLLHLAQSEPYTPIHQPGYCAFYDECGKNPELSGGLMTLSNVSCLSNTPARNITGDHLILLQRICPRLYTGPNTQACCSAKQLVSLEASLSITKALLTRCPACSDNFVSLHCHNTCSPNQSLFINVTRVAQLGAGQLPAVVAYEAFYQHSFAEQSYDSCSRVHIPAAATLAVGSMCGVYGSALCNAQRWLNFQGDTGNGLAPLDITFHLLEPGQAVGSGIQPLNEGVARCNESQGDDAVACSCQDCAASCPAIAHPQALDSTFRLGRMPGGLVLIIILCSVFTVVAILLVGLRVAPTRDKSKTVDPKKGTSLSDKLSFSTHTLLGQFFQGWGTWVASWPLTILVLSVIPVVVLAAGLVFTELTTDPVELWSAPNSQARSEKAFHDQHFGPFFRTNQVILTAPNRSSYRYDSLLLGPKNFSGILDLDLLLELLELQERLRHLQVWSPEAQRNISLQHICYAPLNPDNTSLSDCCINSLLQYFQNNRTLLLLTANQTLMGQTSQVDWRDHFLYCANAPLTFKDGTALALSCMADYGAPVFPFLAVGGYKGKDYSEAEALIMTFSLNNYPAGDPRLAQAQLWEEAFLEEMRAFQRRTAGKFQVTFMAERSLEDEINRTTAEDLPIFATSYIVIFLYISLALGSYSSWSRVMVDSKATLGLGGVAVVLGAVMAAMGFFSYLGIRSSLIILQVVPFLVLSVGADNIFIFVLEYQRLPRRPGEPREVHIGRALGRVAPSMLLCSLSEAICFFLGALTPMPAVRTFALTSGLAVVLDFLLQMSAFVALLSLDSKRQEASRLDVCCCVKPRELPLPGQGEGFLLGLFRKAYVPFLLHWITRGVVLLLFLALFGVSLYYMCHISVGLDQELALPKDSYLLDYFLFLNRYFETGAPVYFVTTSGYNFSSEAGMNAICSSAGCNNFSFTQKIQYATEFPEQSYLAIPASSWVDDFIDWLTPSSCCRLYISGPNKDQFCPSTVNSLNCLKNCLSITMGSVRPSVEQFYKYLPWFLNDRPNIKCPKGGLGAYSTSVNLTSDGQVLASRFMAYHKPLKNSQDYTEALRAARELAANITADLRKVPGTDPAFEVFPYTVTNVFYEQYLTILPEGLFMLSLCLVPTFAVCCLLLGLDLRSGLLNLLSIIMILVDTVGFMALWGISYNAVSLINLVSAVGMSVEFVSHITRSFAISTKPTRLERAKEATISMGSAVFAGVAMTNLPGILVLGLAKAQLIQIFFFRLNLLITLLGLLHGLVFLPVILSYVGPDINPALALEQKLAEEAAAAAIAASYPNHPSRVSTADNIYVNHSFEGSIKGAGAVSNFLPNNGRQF
Procedure: The intestines from freshly sacrificed animals were cut into segments, perfused with ice-cold saline buffer (Buffer A: 26 mM NaHCO3, 0.96 mM NaH2PO4, 5 mM HEPES, 5.5 mM glucose, 117 mM NaCl, 5.4 mM KCl, pH=7.4), placed on cold glass plates, opened longitudinally, and the mucosa scraped with glass microscope slips. This mucosa could be used fresh or frozen with identical results. To prepare the membranes, the mucosal scrapings were resuspended in 20 volumes of cold buffer consisting of 300 mM D-mannitol, 5 mM EGTA, 12 mM Tris, pH 7.4 with HCl, and containing 0.1 mM PMSF and a 1% dilution of a protease inhibitor cocktail (set 1, Calbiochem). They were homogenized using a Polytron at medium speed on ice until inspection with a microscope indicated complete cell lysis. Then, solid MgCl2 was added slowly with stirring to a final concentration of 10 mM, and the solution was kept stirring on ice for 15 min. Cellular debris was removed by centrifugation for 15 min at 3,000 g, and the membranes were recovered by centrifugation for 60 min at 48,000 g. The membranes were further rinsed by re-suspension in a buffer containing 50 mM D-mannitol, 5 mM EGTA, and 2 mM Tris at pH 7.40, and centrifugation for 60 min at 48,000 g. The final pellet was resuspended in 120 mM NaCl and 20 mM Tris at pH 7.40 to a concentration of ˜10-20 mg protein/ml, aliquoted, frozen in liquid nitrogen, and stored at −80 C. The activity was stable indefinitely and could be freeze-thawed with minimal loss of activity.
Binding assay. Assays were conducted in 12×75 mm glass test tubes and total volume 20-100 ul. In general, frozen membranes were diluted in buffer A or buffer A containing 0.03% taurocholate and 0.05% digitonin to a final concentration of 0.02 to 5 mg/ml. […] Competing ligands were likewise added as DMSO solutions to give a total 2-10% organic solvent content. […] At least 2 components of buffer A, the bicarbonate and phosphate salts, were later found to be inconsequential and were routinely omitted.
Bound ligand was quantified by single-tube vacuum filtration using GF/C glass fiber filters. […] Filtration was accomplished by adding 2.5 ml of ice cold buffer (120 mM NaCl, 0.1% sodium cholate, and 20 mM MES at pH 6.70) to the assay tube, pouring the mixture through the filter, and then rinsing the tube and filter twice more with another 2×2.5 ml buffer. The filters were counted in 7 ml vials using Packard DM liquid scintillation fluid.
Data analysis. Data from saturation experiments were subjected to a Scatchard analysis, and linear regression was performed to yield the equilibrium dissociation constant (Kd) and maximum receptor concentration (Bmax). […] Data from competition experiments were analyzed and IC50 values determined from Hill plots of the binding data.

[3] = target: rat NPC1L1 (Rattus norvegicus, UniProt Q6T3U3); assay: Binding to membranes of HEK-293 cells expressing recombinant rat NPC1L1; parameters: expressed in transfected cells; host or cells: HEK-293 cells (ATCC), transient, pCR3.1; membranes; conditions: 0.03% sodium taurocholate and 0.05% digitonin; 1.25 mg protein/ml, 100 nM 1
Procedure: (§2) Transient expression of NPC1L1. Plasmid pCR3.1 expressing rat NPC1L1 (Genbank AY437867) or human NPC1L1 (Genbank AY437865) were prepared using standard molecular biology protocols. HEK-293 cells (ATCC) were seeded at 10×10^6 cells per T-225 flask (Corning) in DMEM containing 10% fetal calf serum, 4.5 g/L D-glucose and L-glutamine, 18 hours prior to transfection. They were transiently transfected with 25 μg of DNA using Fugene transfection reagent (Roche Biochemical) at a ratio of 6:1 Fugene:DNA. Following transfection, the cells were incubated at 37° C. and 5% CO2 for 48 hours, and then harvested using PBS based cell dissociation buffer (Gibco), pelleted at 500×g, snap frozen on dry ice, and stored at −80° C.
(§3) Membrane preparation from HEK-293 cells. Membranes were prepared by resuspending the frozen cell pellets in ten volumes of 20 mM HEPES/Tris buffer at pH 7.40 containing 8% sucrose, and sonicating the suspensions with a probe sonicator on ice until most of the cells were lysed. To isolate the membranes, the sonicates were centrifuged at 1600×g for 10 min to remove cell debris, and then the supernatants were centrifuged at 125,000×g for 1 hour to recover the membranes. These membranes were resuspended in 20 mM HEPES/Tris buffer at pH 7.40 containing 160 mM NaCl and 5% glycerol, and stored at 10-20 mg/ml protein at −80° C.
as §1

[4] = target: T3, human NPC1L1 (Homo sapiens, UniProt Q9UHC9, G1187D/M616T/T1073A); assay: Binding to membranes of HEK-293 cells expressing recombinant human NPC1L1; parameters: expressed in transfected cells; host or cells: HEK-293 cells (ATCC), transient, pCR3.1; membranes; conditions: 0.03% sodium taurocholate and 0.05% digitonin; 1.25 mg protein/ml, 100 nM 1
T3 sequence (Q9UHC9 22-1332 isoform Q9UHC9-2 M616T/T1046A/G1160D limits assumed): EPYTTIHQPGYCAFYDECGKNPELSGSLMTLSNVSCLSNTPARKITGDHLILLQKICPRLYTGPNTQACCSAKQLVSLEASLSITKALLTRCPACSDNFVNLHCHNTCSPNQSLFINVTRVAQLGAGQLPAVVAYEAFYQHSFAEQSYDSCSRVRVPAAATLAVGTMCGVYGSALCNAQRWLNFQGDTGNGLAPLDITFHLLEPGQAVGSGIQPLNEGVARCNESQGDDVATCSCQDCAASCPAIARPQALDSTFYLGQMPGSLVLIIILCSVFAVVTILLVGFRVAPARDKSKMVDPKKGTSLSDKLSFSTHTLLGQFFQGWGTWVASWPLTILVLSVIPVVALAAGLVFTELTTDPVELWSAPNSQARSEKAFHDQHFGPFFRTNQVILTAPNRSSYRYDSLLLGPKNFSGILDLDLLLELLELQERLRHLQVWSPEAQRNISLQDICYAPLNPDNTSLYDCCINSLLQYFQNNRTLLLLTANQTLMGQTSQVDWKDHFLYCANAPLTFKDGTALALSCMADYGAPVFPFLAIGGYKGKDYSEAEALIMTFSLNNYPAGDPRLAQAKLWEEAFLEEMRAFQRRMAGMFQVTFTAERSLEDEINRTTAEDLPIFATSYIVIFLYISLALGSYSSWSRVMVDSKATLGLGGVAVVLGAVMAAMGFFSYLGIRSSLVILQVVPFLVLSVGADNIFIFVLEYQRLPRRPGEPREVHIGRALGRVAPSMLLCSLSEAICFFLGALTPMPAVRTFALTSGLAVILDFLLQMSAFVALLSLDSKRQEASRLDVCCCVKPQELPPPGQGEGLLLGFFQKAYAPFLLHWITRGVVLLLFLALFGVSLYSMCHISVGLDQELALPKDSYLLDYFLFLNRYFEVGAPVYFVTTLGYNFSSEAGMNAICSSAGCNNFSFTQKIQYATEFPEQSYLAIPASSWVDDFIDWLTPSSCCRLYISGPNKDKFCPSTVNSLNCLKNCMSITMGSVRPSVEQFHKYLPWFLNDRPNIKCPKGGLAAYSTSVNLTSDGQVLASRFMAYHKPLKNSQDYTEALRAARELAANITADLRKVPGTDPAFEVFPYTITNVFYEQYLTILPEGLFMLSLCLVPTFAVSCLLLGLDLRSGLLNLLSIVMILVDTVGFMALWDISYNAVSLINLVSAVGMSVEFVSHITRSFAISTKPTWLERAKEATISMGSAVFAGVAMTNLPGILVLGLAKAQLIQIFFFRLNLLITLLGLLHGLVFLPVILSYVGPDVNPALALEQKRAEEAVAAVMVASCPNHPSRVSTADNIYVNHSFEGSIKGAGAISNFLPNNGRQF
Procedure: as §2, §3, §1

- pKi ([1]; 0.03% sodium taurocholate and 0.05% digitonin, 1.25 mg protein/ml, 100 nM 1, read-out: Rat BBM Ki): 6.55
- IC50 ([1]; rat brush border membrane vesicles, read-out: RAT IC50 (nM), inhibition of ^3H-EZE-gluc binding): 252 nM
- pKi [2]: 7.22
- pKi [3]: 6.44
- pKi [4]: 6.68
Compound: O=C(O)[C@H]1O[C@@H](Oc2ccc([C@@H]3[C@@H](CC[C@H](O)c4ccc(F)cc4)C(=O)N3c3ccc(F)cc3)c(O)c2)[C@H](O)[C@@H](O)[C@@H]1O [Compound 7]
